From US10220025B1, “Self-emulsifying formulation of CARP-1 functional mimetics” (Florida A&M University, priority 2016, dated 2019)

Key:
[1] = tested on: MDA-MB-231 TNBC cells, wild type; assay: MTT viability assay, parental MDA-MB-231; assay type: cell-based, human; settings: 10 μM dose
Experimental: (§2) In vitro inhibition of cell growth was assessed by MTT (3-[4, 5-dimethyltiazol-2-yl]-2.5-diphenyl tetrazolium bromide) reagent. Cells (5×10^3) were seeded in a 96-well culture plate and subsequently treated with respective agents at different concentrations as mentioned. Control cells were treated with 0.1% DMSO in culture medium. After treatment, the cells were incubated with 1 mg/ml of MTT reagent at 37° C. for 2-4 hours and then MTT was removed and 50 μL of DMSO was added, followed by colorimetric analysis using a multi-label plate reader at 560 nm (Victor3; PerkinElmer, Wellesley, Mass., USA).

[2] = tested on: HeLa cervical cancer cells; assay: MTT viability assay, HeLa; assay type: cell-based; settings: 20 μM; 24 h; FIG. 3A
From the text: (§1) The current inventors' previous studies have indicated cancer cell growth inhibitory properties of CFMs in particular CFM-4 and CFM-5 [Puliyappadamba et al.]. […] J. Biomed. Nanotechnol. 2015; 11:1608-1627]. […] J. Biomed. Nanotechnol. 2015; 11:1608-1627]. On the basis of these findings, it was speculated that solubility and/or potency of the CFM-4 scaffold could be improved for its utility as a novel anti-TNBC molecule. To address this possibility, twelve (12) additional analogs of CFM-4 (Table 2) were synthesized using medicinal chemistry based structure activity relationship (SAR) studies. Each of the analog was suspended in DMSO, and their potency was evaluated in cell culture studies utilizing HeLa cervical cancer, MDA-MB-468 TNBC, and H2461 malignant pleural mesothelioma (MPM) cells by MTT based assays. […] Moreover, a 10 μM dose of CFM-4 inhibited MDA-MB-231 and MDA-MB-468 viabilities by ˜30% and 45%, respectively.

[3] = tested on: H2461 malignant pleural mesothelioma (MPM) cells; assay: MTT viability assay, MPM cells; assay type: cell-based, human; settings: 20 μM; 24 h; FIG. 3A
From the text: as §1

TNBC cells = assay: MTT viability assay, parental TNBC cells (lines not singled out); assay type: cell-based
Experimental: as §2

[4] = tested on: Src, MET, and STAT3 kinases in TNBC cells; assay: Western blot, oncogenic tyrosine kinases; assay type: cell-based
Experimental: (§3) For protein expression analysis, Western blot (WB) experiments were performed according to the standard procedures. The cells were either untreated or treated with various agents either alone or in combinations as indicated. Following treatment durations, the cells were lysed in cell lysis (10×) buffer (#9803; cell signaling) containing 0.1% of protease and phosphatase inhibitor cocktail (Sigma) for 20 min at 4° C. The lysates were centrifuged at 14,000 rpm at 4° C. for 15-20 min to remove debris. Protein concentrations of whole cell lysates were determined using the Protein Assay Kit. Supernatant proteins, 50-100 μg from each sample, were separated by SDS-polyacrylamide gel electrophoresis (SDS-PAGE) and transferred to polyvinylidene difluoride (PVDF) membrane (Bio-rad, Hercules, Calif.) by standard procedures. […] The antibody-bound proteins were visualized by treatment with the chemiluminescence detection reagent according to manufacturer's instructions, followed by exposure to X-ray film (Denville Scientific Inc.). The same membranes were re-probed with the anti-β-actin or anti-α-tubulin antibody, which was used as an internal control for protein loading.

HUVECs = assay: in vitro tubule formation (angiogenesis) assay; assay type: cell-based, human; settings: 12 hours; FIG. 11A
Experimental: The growth of tubules was monitored over a period of 12 hours. The cells growth in the scratch assay was recorded by photography. Representative photomicrographs of control and treated cells are presented.
It was next investigated whether CFM-4.16 inhibited TNBC cell migration and growth as colonies in soft agar and 3-dimensional cultures in vitro. In addition, an in vitro tubule formation assay was conducted to determine anti-angiogenic properties of CFM-4.16. […] Moreover, treatments with CFM-4 or CFM-4.16 prevented the parental as well as drug (ADR- or cisplatin-) resistant TNBC sublines and the parental and Herceptin-resistant, Her-2-positive SKBR-3 cells from growing in the areas of wound caused by a scratch (FIGS. 11B, 11C, 12A, 12B, 13A, and 13B).

[5] = tested on: parental and drug-resistant TNBC and SKBR-3 cells; assay: scratch/wound healing cell migration assay; assay type: cell-based; settings: FIGS. 11B, 11C, 12A, 12B, 13A, 13B
Experimental: The TNBC cells migration in the absence or presence of CFMs was measured by the “scratch/wound healing” assay. Cells were seeded in a 6-well plate (˜10,000 cells/well), and when attached, a scratch was created in the cell monolayer using sterile pipette tip. The cells were then allowed to continue growing in the absence (Control) or presence of noted dose of each of the agents for indicated time periods. The cells were photographed at the beginning and at regular intervals during the treatment period, and the images from control cells were compared with the treated cells to determine the migration of the cells essentially as described before [Liang C C, Park A Y, Guan J L In vitro scratch assay: a convenient and inexpensive method for analysis of cell migration in vitro. Nat Protoc. 2007; 2:329-33]. The photomicrographs of the cells were recorded under different magnifications utilizing Zeiss microscope with attached 35 mm camera.

[6] = tested on: mammospheres of parental and drug-resistant MDA-MB-468 TNBC cells; assay: three-dimensional mammosphere assay; assay type: cell-based, human
Experimental: The TNBC cells were obtained from tumors derived from parental and drug-resistant cells or from a two-dimensional culture plate with ˜70-80% confluence. The cells were washed twice in 1×PBS and trypsinized following established protocols. The cells were pelleted at 200×g at room temperature, and re-suspended in 5 ml of mammosphere media (DMEM/F12 supplemented with 2 mM L-glutamine, 100 U/ml penicillin, […] streptomycin, 1×B27 supplement, 20 ng/ml recombinant human epidermal growth factor (EGF; Sigma), 10 ng/ml recombinant human basic fibroblast growth factor (bFGF; R&D Systems). The cell suspension of ˜5000 viable cells per ml was then seeded in an ultra-low adherent 60 mm plate and incubated at 37° C. and 5% CO2 for two weeks without disturbing the plates. After the mammospheres formed, fresh media with or without 10 μM CFM-4.16 was added and the cells incubated for additional 24 h at 37° C. and 5% CO2. The mammospheres in the untreated and treated plates were photographed, and the cells were then dissociated to determine their viabilities by the MTT assay as described [Lombardo Y, de Giorgio A, Coombes C R, Stebbing J, Castellano L. Mammosphere Formation Assay from Human Breast Cancer Tissues and Cell Lines. J. Vis. Exp. 2015; 97: e52671. doi:10.3791/52671].

[7] = pharmacokinetic study of CFM-4.16 NLF and free drug (Study 2); assay type: in vivo, Sprague Dawley Rats; settings: rats; 40 mg/kg orally
Experimental: J. Biomed. Nanotechnol. 2015; 11:1608-1627]. Briefly, rats were fasted overnight prior to the start of experiments and randomly divided into three experimental groups receiving CFM-4.16 FD and CFM-4.16 NLF at 40 mg/kg orally and CFM-4.16 solution (CFM-4.16 sol) at 5 mg/kg by intravenous route. After the drug administration, blood samples (250 μl) were withdrawn from tail veins at 0, 0.25, 0.5, 1, 2, 4, 6, 8, 12 and 24 h, and collected directly into heparinized microvet blood collection tubes and plasma was obtained by centrifugation at 10,000 rpm for 10 min. The plasma samples were stored at −80° C. until needed for analysis. CFM-4.16 was extracted from the plasma by protein precipitation method and extracted samples were dissolved in mobile phase and samples were analyzed by HPLC. Oral bioavailability of CFM-4.16 FD and CFM-4.16 NLF along with their pharmacokinetic parameters such as area under curve (AUC), Cmax, t½, and tmax were estimated using non-compartmental techniques with WinNonlin® 5.0 software (Pharsight Corporation, Mountain View, Calif., USA).

solubility observations = assay type: physicochemical
[8] = tested on: Klf4, Oct4, SOX2, CD133 in MDA-MB-231 TNBC cells; assay: Western blot, cancer stem cell markers; settings: parental and ADR-resistant MDA-MB-231; FIG. 14B
Experimental: as §3

## O=C1N(Cc2ccccc2Cl)c2ccccc2C12NN=C(c1cccc(Cl)c1)S2 (stereo not drawn) [CFM-4.16]
[1]
  inhibition / loss of cell viability: 80-100%
[2]
  inhibition of viability compared with CFM-4: greater inhibition of viability
[3]
  loss of viability compared with CFM-4: greater loss of viability
TNBC cells
  CC50: 7 to 8 µM
TNBC cells; 5 μM each, combination, 6 h, FIG. 3C
  effect on ADR-mediated inhibition of viability: enhanced ADR-mediated inhibition of viability
TNBC cells; 5 μM, 6 h, FIG. 3C
  loss of cell viability compared with ADR-treated cell line: greater loss of cell viability
TNBC cells; 12 h, FIGS. 4A-4E
  growth of wild-type TNBC cells: inhibited growth
TNBC cells; SAR screen of twelve analogs
  activity relative to parent compound CFM-4 or other analogs: superior
TNBC cells; read-out: dose for inhibition of TNBC cells growth by 50% (GI50)
  GI50: ~2 µM
[4]; ADR as well as Cisplatin-resistant human TNBC cells, FIGS. 7A and 8C
  activation of STAT3: robustly attenuated
[4]; parental and drug-resistant human and murine TNBC cells
  activation and/or expression of MET and Src tyrosine kinases: reduced activation and/or expression
HUVECs
  tubule formation by HUVECs compared with untreated control: rather robust disruption in tubule integrity
[5]
  growth of cells in the areas of wound caused by a scratch: prevented
[6]; 10 μM, 24 h, FIG. 15A
  mammosphere integrity: disintegration of mammospheres
[6]; parental and ADR-resistant cells, FIG. 15B
  viability of mammospheres vs DMSO-treated controls: robust decline in viability
[7]
  AUC: 21070 ± 4200 ng·h/mL
  plasma Cmax concentration: 1190 ± 35 ng/mL
Solubility observations
  aqueous solubility: poor aqueous solubility
  behaviour of DMA solution on addition of water: immediately got precipitated
  lipid solubility: good lipid solubility
[8]
  levels of Oct4: robust decline in levels of Oct4
